Data published in patent US20040022788A1, “Compositions and methods for promoting or inhibiting angiogenesis” (priority 1998, published 2004).
“Also recorded” adds a separate entry of the source. Values belong to the molecule of their own block, whether it stands above or below them.

Key:
HUVEC [1] = test: HUVEC cell proliferation assay (CyQUANT); format: cell-based, human
Protocol: Cell Proliferation Assay. HUVEC were plated at a density of 5000 cells/well in media depleted of fetal calf serum (FCS) overnight to allow the cells to become quiescent. Fresh media containing 5% FCS, 10 ng/ml basic fibroblast growth factor (bFGF) and 3 ng/ml vascular endothelial growth factor (VEGF) were added to the wells along with angiostatin (1.0 μM), antibody directed against the recombinant human alpha-subunit of ATP synthase (1:10 dil), antibody directed against the recombinant human beta-subunit of ATP synthase (1:10 dil), pre-immune serum (1:10 dil) or cycloheximide ([…]). Cell density was measured after 24 hrs using CyQUANT Cell Proliferation Assay Kit (Molecular Probes) in a fluorometric plate reader (Molecular Devices). The absorbance values used to calculate the percent proliferation of the cells ranged from 1.24 or 1.00 for treated and 2.57 for untreated.

[2] = target: T1, purified bovine F1 ATP synthase (Bos taurus, UniProt P00829+P19483); test: F1 activity assay (ATPase, coupled NADH oxidation at 340 nm); format: biochemical; details: NaN3 2%
T1 construct: from tissue; host or cells: bovine heart mitochondria
Protocol: FIG. 12 is a bar graph showing the inhibition of purified F1 ATP synthase by angiostatin. Purified F1 ATP synthase activity was measured spectrophotometrically at λ=340 nm by coupling the production of ADP to the oxidation of NADH via the pyruvate kinase and lactate dehydrogenase reaction in which a decrease in the absorbance at λ=340 nm indicates active protein (dark six membered rings). […] Control antibodies had no effect on activity (light circles and squares). Representative data shown, n=3.
Purification of Bovine Heart F1 ATP Synthase and F1 Activity Assay. Fresh bovine heart mitochondria were obtained as previously described (23) and sonicated to yield sub-mitochondrial particles (24). The F1 portion was separated from membrane-bound FO by chloroform extraction. The aqueous layer was centrifuged at 105,000×g to remove particulate matter before purifying over an S300 gel filtration column. […] ATPase activity was measured spectrophotometrically by monitoring at λ=340 nm by coupling the production of ADP to the oxidation of NADH via pyruvate kinase and lactate dehydrogenase reactions as described in Zheng,& Ramirez, Biochem Biophys Res Commun 261(25):499-503 (1999).

[3] = target: T2, ATP synthase on the surface of HUVEC (Homo sapiens, UniProt P05496+P06576+P25705); test: Cell-surface ATP generation by bioluminescent luciferase assay; format: cell-based; details: oligomycin (0.1 mg/mL per method), 50 μM ADP
T2 construct: endogenous in cells; host or cells: HUVEC (primary human umbilical vein endothelial cells)
Protocol: Cell-surface ATP Assay. […] Cells were treated with (1 μM) angiostatin or (0.1 mg/mL) oligomycin for 1 hr at 37° C. All cells were then incubated with 0.1 Ci ^32P and 0.1 Ci ([…]) [2,8-^3H]-ADP (NEN Life Sciences) for 1 min. Supernatants were removed and centrifuged before assaying for ATP production by thin layer chromatography (TLC) or by firefly luciferase assay. ATP Generation by Bioluminescent Luciferase Assay. […] Louis, Mo.). In this firefly luciferin-luciferase reaction, only ATP is readily detected since the enzymatic reaction of firefly luciferase to oxidize luciferin is specific for ATP relative to all other nucleotides. Samples were injected with the ATP assay mixture and recordings were made in a LuminoskanRS (LabSystems, Franklin, Mass.) over a 10 s period. The response in a given sample or standard was quantified as area under the peak of the response and averaged for duplicate determinations. Data are expressed as picomoles of ATP produced per cell based on standards determined under the same conditions with each experiment. Angiostatin was prepared as described in Sottrup-Jensen, […]., Petersen, T. E. & Magnusson, S. (1978) Progress in Chemical Fibrinolysis and Thrombolysis (Raven Press, New York).

[4] = system: angiostatin binding site on HUVEC; test: Competition binding assay, 125I-labeled angiostatin on HUVEC; design: species or system human
Protocol: FIG. 6. Competition binding assay between angiostatin and the antibody against the alpha subunit of ATP synthase from E. coli. […] Cells were washed and remaining bound radioactivity was quantified by γ-counting. Non-specific binding was measured in the presence of excess unlabeled angiostatin and was subtracted from total binding. […] Competition studies were also performed simultaneously using rabbit pre-immune serum to account for non-specific inhibition. Error bars represent standard deviation. A 1 tailed homoscedastic t test was used for statistical analysis; p<0.10.
Binding Assays. Ligands were radioiodinated by using Iodobeads (Pierce), repurified on L-lysine-Sepharose, eluted with 100 mM ε-aminocaproic acid, and dialyzed in PBS, pH 7.0 before use in binding assays. […] Nonspecific binding was measured in the presence of excess unlabeled ligand.

HUVEC [5] = test: Direct binding of 125I-labeled plasminogen or angiostatin to endothelial cells, Scatchard analysis; design: species or system human; details: 125I-labeled ligand, 1 h at 4° C., read-out: apparent dissociation constant (Kd)
Protocol: FIGS. 1A and 1B. Direct binding assay and Scatchard analysis of plasminogen and angiostatin with endothelial cells. HUVEC were plated at a density of 10,000 cells/well and incubated with increasing concentrations of ^125I-labeled-plasminogen or angiostatin. FIG. 1A. ^125I-labeled plasminogen binding was concentration-dependent and saturable with an apparent dissociation constant ([…]) of 158 nM and 870,000 sites/cell. FIG. 1B. […] Error bars represent standard deviation.
(§1) Binding Assays. Ligands were radioiodinated by using Iodobeads (Pierce), repurified on L-lysine-Sepharose, eluted with 100 mM ε-aminocaproic acid, and dialyzed in PBS, pH 7.0 before use in binding assays. HUVEC were plated at a density of 5,000 or 10,000 cells/well and incubated with increasing concentrations of ^125I-labeled ligand in media containing 1% BSA for 1 h at 4° C. in 96-well plates. Wells were washed, and remaining bound radioactivity was quantified by using an LKB 1272 γ-radiation counter. Nonspecific binding was measured in the presence of excess unlabeled ligand.

[6] = target: T3, recombinant alpha subunit of human ATP synthase (Homo sapiens, UniProt P25705); test: Ligand blot binding to the recombinant alpha subunit of ATP synthase
T3 construct: His tag; made in house; host or cells: E. coli BL21DE3
Protocol: FIGS. 7A-7E. Angiostatin binding to the recombinant alpha subunit of human ATP synthase. The alpha subunit of human ATP synthase was cloned and expressed in E. coli and purified using Qiagen's nickel-Sepharose protein purification system before dialyzing in phosphate buffered saline (PBS), pH 7.0. Recombinant protein was electrophoresed on 5-15% SDS-PAGE, electroblotted onto Immobilon™ membrane and incubated 18 h in 10 mM Tris-HCl, 0.15M NaCl, 0.05% NP40, pH 7.5 (TSN) containing ^125I-angiostatin. For competition studies, unlabeled ligand was added 4 h prior to radiolabeled ligand. Blots were washed in TSN buffer containing 0.05% Tween80 and bound radioactivity was quantified on a Molecular Dynamics PhosphorImager™.
Purification of the alpha-Subunit of ATP Synthase. Competent E. coli BL21DE3 were transformed with the pET24a(+) vector containing the alpha subunit, plated on 2× Bacto-yeast tryptone (YT) agarose, and grown overnight at 37° C. Twenty milliliters of 2× YT containing […] kanamycin was inoculated with one colony and grown overnight at 37° C. (200 rpm). A 1-liter culture (2× YT, […] kanamycin) was inoculated with 20 ml of the noninduced overnight culture and grown at 37° C. to an OD of 0.6 at a wavelength of 600 nm. Isopropyl […] was added to a final concentration of 1 mM and grown for an additional 3 h. Cells were harvested by centrifugation at 8,000 rpm for 10 min and stored overnight at −20° C. Lysates were prepared under denaturing conditions and batch-purified by using Qiagen Ni-NTA agarose. Resulting protein was dialyzed against PBS, pH 7.0 for use in all experiments.

[7] = system: plasminogen binding sites on HUVEC; test: Competition binding assay, 125I-labeled plasminogen on HUVEC; design: species or system human; details: 1.0 μM 125I-labeled plasminogen; 25-fold molar excess of unlabeled plasminogen
Protocol: FIG. 2. Competition binding assay between plasminogen and angiostatin. HUVEC were plated at a density of 10,000 cells/well and incubated with 1.0 μM ^125I-labeled plasminogen in the presence of 100-fold molar excess of unlabeled angiostatin for 1 h at 4° C. Cells were washed and the remaining radioactivity was quantified by γ-counting.
as §1

Molecule: C[C@@H]1C[C@@H]([C@H](O)CC2CC(=O)NC(=O)C2)C(=O)[C@@H](C)C1 [Cycloheximide]
inhibition at 10 µg/mL (HUVEC [1]; Homo sapiens, HUVEC, 24 h, read-out: Percent Inhibition (+/− S.E.M.) of HUVEC proliferation): 100%
cellular morphology of treated cells (HUVEC [1]; compared with untreated cells, data not shown): obvious rounded morphology

Molecule: [N-]=[N+]=[N-].[Na+] [NaN3, reference compound]
inhibition of purified F1 ATPase activity [2]: completely inhibited

Molecule: CC[C@H]1/C=C/C=C/C[C@@H](C)[C@H](O)[C@@](C)(O)C(=O)[C@@H](C)[C@H](O)[C@@H](C)C(=O)[C@@H](C)[C@H](O)[C@@H](C)/C=C/C(=O)O[C@@H]2[C@H](C)[C@H](CC1)O[C@]1(CC[C@H](C)[C@H](C[C@@H](C)O)O1)[C@H]2C [Oligomycin, reference compound]
inhibition at 100 µg/mL ([3]; HUVEC, read-out: Percent Inhibition (+/− S.E.M.) of ATP generation): 84%
Percent Inhibition (+/− S.E.M.) of ATP generation [3]: 83.5 +/− 4.5%

inhibition of 125I-labeled angiostatin binding ([4]; 100 mM ε-aminocaproic acid, data not shown): only slightly inhibited
Molecule: NCCCCCC(=O)O [ε-aminocaproic acid, reference compound]

inhibition of 125I-labeled angiostatin binding to recombinant alpha subunit ([6]; 0.5 nM 125I-labeled angiostatin, 2500-fold molar excess of unlabeled plasminogen): not inhibited
binding of 125I-labeled ligand to recombinant alpha subunit ([6]; ligand blot): did not bind
inhibition of 125I-labeled plasminogen binding [7]: about 80%
Molecule: plasminogen: purified from human plasma by affinity chromatography, 92 kDa
Kd (HUVEC [5]): 158 nM
inhibition of 125I-labeled angiostatin binding ([4]; excess unlabeled plasminogen (2-fold molar excess in FIG. 2 legend)): little or no effect; also recorded: no inhibition
